{"source": "patent US20080233206A1", "about": "“COMPOSITIONS AND METHODS FOR ANTI-INFLAMMATORY TREATMENTS” (Molecular Research Center, Inc., priority 2007, published 2008)", "key": {"[1]": {"system": "various cell types", "details": "in vitro and in vivo; cited from earlier work"}, "[2]": {"system": "human lymphoma Molt-4 cells", "experiment": "Growth of human lymphoma Molt-4 cells", "type": "cell-based", "details": "5 μg/ml, read-out: inhibition of cell growth", "excerpt": "(§1) The intestine epithelial cells have a high proliferation rate. Thus, the anti-proliferating effect of semisynthetic or synthetic tetracyclines may lead to potential side effects, especially during a long-term therapy."}, "[3]": {"system": "human intestine cell line CCL-221", "experiment": "Growth of human intestine cell line CCL-221", "type": "cell-based", "details": "5 μg/ml", "excerpt": "as §1"}, "[4]": {"details": "cited from earlier work"}, "[5]": {"details": "prolonged treatment (for acne); cited from earlier work"}, "[6]": {"details": "human subjects, concurrently with a protein diet (Welling, 1977)"}}, "note": "Like-named read-outs stand apart in the source and are kept apart here.", "data": [{"smiles": "NC(=O)C1=C(O)C[C@@H]2C[C@@H]3Cc4cccc(O)c4C(=O)C3=C(O)[C@]2(O)C1=O", "note": "[CMT-3]", "values": [{"measurement": "effect on cell proliferation", "setting": "[1]", "value": "inhibit proliferation"}]}, {"smiles": "C[C@H]1c2cccc(O)c2C(=O)C2=C(O)[C@]3(O)C(=O)C(C(N)=O)=C(O)[C@@H](N(C)C)[C@@H]3[C@@H](O)[C@@H]21", "note": "[doxycycline]", "values": [{"measurement": "inhibition at 5 µg/mL", "setting": "[2]", "value": "~80", "unit": "%"}, {"measurement": "inhibition at 5 µg/mL", "setting": "[3]", "value": "~60", "unit": "%"}, {"measurement": "serum level", "setting": "[4]; fasting subjects (Depperman, 1989)", "value": 2700, "unit": "ng/mL"}, {"measurement": "serum level", "setting": "[4]; [6]", "value": 2600, "unit": "ng/mL"}, {"measurement": "serum level", "setting": "[4]; with antacid (aluminum-magnesium hydroxide) (Depperman, 1989)", "value": 450, "unit": "ng/mL"}]}, {"smiles": "CN(C)c1ccc(O)c2c1C[C@H]1C[C@H]3[C@H](N(C)C)C(O)=C(C(N)=O)C(=O)[C@@]3(O)C(O)=C1C2=O", "note": "[minocycline]", "values": [{"measurement": "induced syndrome", "setting": "[5]", "value": "drug-induced lupus"}]}, {"smiles": "CN(C)[C@@H]1C(O)=C(C(N)=O)C(=O)[C@@]2(O)C(O)=C3C(=O)c4c(O)cccc4[C@@](C)(O)[C@H]3C[C@@H]12", "note": "[tetracycline, 4-(Dimethylamino)-1,4,4α,5,5α,6,11,12α-octahydro-3,6,10,12,12α-pentahydroxy-6-methyl-1,1′-dioxo-2-naphtacenecarobxamide]", "values": [{"measurement": "inhibition at 5 µg/mL", "setting": "[2]", "value": "~20", "unit": "%"}, {"measurement": "serum level", "setting": "[4]; [6]", "value": 1800, "unit": "ng/mL"}]}]}
